The values that follow come from patent publication US4136163A, “P-Menthane carboxamides having a physiological cooling effect” (Wilkinson Sword Limited, priority 1971, dated 1979).

Each structure is given as a SMILES string.

One assay deals with cold receptors. The assay is described as follows: Threshold test: minimum quantity of compound on filter paper square on tongue giving a noticeable cooling effect, selected panel of 6 people. Conditions: panel of 6 people, cooling reported 50% of the time. The class given is in vivo, human. The source says: For example, a controlling factor in the onset of cooling effect, its intensity and longevity will be the rate of penetration of the compounds through the epidermis and this will vary in different locations on the human body.
It will also benoted that the described test procedure is done on a statistical basis. This is necessary since sensitivity to these compounds will vary not only from compound to compound and from one part of the body to another, but also from one individual to another. Tests of this nature are commonly used in the testing of the organoleptic properties, e.g. taste, smell etc. of organic and inorganic compounds, see Kirk-Othmer: Encyclopedia of Chemical Technology, 2nd. Ed.
The following test procedure is aimed at determining the minimum quantity of the test compound required to produce a noticeable cooling effect on a person of average sensitivity, this minimum quantity being termed the threshold for that particular compound. The tests are carried out on a selected panel of 6 people of median sensitivity to 1-menthol.
To select a test panel of average sensitivity the following procedure is used. Known quantities of 1-menthol in solution in petroleum ether (bp.40-60) are placed on 5 mm. squares of filter paper, whereafter the solvent is allowed to evaporate. A panel of observers is enrolled and asked to place one impregnated square at a time on the tongue and to report on the presence or absence of a cooling effect. […] Conveniently, one starts with squares containing 2.0 μg. 1-menthol, the amount on each successive square being half that of the preceding square, i.e. the second test square will contain 1.0 μg, the third 0.5 μg and so on. Each quantity is tested on the tongue at least 10 times. In this way, the thresholds to cold receptor stimulus by 1-menthol are determined for each individual of the panel, the threshold for each individual being that amount of 1-menthol for which, in a series of not less than 10 test applications, a cooling effect is reported 50% of the time.
To test the activity of compounds according to this invention, the above procedure is repeated using only the 6 selected panel members of average sensitivity to 1-menthol. The individual thresholds for each test compound on each of the 6 selected panel members are determined and averaged. Those compounds whose average threshold on the select test panel is 100 μg or less are regarded as having cooling activity in accordance with this invention.
Turning to `CCOC(=O)CCNC(=O)C1CC(C)CCC1C(C)C` (stereo not shown) [H, --CH2 CH2 COOC2 H5], the “Threshold (average minimum quantity to produce a noticeable cooling effect)” value worked out at 1.5 µg.
With `CC1CCC(C(C)C)C(C(=O)NC(C)(C)C)C1` (stereo not shown) [H, --C4 H9 (tert.)], the “Threshold (average minimum quantity to produce a noticeable cooling effect)” value stood at 0.4 µg.
As for `COc1ccc(NC(=O)C2CC(C)CCC2C(C)C)cc1` (stereo not shown) [H, --C6 H4 OMe(p)], the “Threshold (average minimum quantity to produce a noticeable cooling effect)” value was 0.1 µg.
On to `CCOC(=O)CNC(=O)C1CC(C)CCC1C(C)C` (stereo not shown) [H, --CH2 COOC2 H5], for which the “Threshold (average minimum quantity to produce a noticeable cooling effect)” value turned out to be 0.2 µg.
The same measure, in the same setting: the result for `Cc1ccc(NC(=O)C2CC(C)CCC2C(C)C)cc1C` (stereo not shown) [H, --C6 H3 Me2 (m,p)] reads 0.1 µg; that for `CC1CCC(C(C)C)C(C(=O)NCC(=O)O)C1` (stereo not shown) [H, --CH2 COOH, N-(p-menth-3-oyl) glycine], 16 µg.
On the same count and under the same terms, the result for `CC1CCC(C(C)C)C(C(=O)NCO)C1` (stereo not shown) [H, --CH2 OH] reads 12 µg.
Regarding `CC1CCC(C(C)C)C(C(=O)NC2CCCCCC2)C1` (stereo not shown) [H, --C7 H13 (cyclo)], the “Threshold (average minimum quantity to produce a noticeable cooling effect)” value stood at 3 µg.
Turning to `CCCCNC(=O)C1CC(C)CCC1C(C)C` (stereo not shown) [H, --C4 H9 (n)], the “Threshold (average minimum quantity to produce a noticeable cooling effect)” value amounted to 1.4 µg.
For the molecule `CC1CCC(C(C)C)C(C(=O)N(C)CCO)C1` (stereo not shown) [--CH3, --CH2 CH2 OH], the “Threshold (average minimum quantity to produce a noticeable cooling effect)” value amounted to 5 µg.
The same measure, in the same setting: the result for `CC1CCC(C(C)C)C(C(=O)NO)C1` (stereo not shown) [H, --OH] reads 11 µg; that for `CC1CCC(C(C)C)C(C(=O)NCCN)C1` (stereo not shown) [H, --CH2 CH2 NH2], 20 µg.
As for `CC1CCC(C(C)C)C(C(=O)NCC2CCCCCC2)C1` (stereo not shown) [H, --CH2 (C7 H13 (cyclo)], the “Threshold (average minimum quantity to produce a noticeable cooling effect)” value came to 20 µg.
Same read-out and setting: the result for `CC1CCC(C(C)C)C(C(=O)Nc2ccccc2O)C1` (stereo not shown) [H, --C6 H4 OH(o)] reads 0.5 µg; that for `Cc1ccc(NC(=O)C2CC(C)CCC2C(C)C)cc1O` (stereo not shown) [H, --C6 H3 Me(p)OH(m)], 0.1 µg.
On to `Cc1ccc(NC(=O)C2CC(C)CCC2C(C)C)cc1` (stereo not shown) [H, --C6 H4 Me(p)], for which the “Threshold (average minimum quantity to produce a noticeable cooling effect)” value stood at 0.3 µg.
Still for that read-out and setting: with `COC(=O)CNC(=O)C1CC(C)CCC1C(C)C` (stereo not shown) [H, --CH2 COOCH3, N-(p-menth-3-oyl)glycine methyl ester] the figure was 0.6 µg; with `CCOC(=O)CN(C)C(=O)C1CC(C)CCC1C(C)C` (stereo not shown) [--CH3, --CH2 CO2 C2 H5], 0.8 µg; with `CC(=O)OCCNC(=O)C1CC(C)CCC1C(C)C` (stereo not shown) [H, --CH2 CH2 OCOCH3], 1.5 µg.
Still for that read-out and setting: the result for `CC1CCC(C(C)C)C(C(=O)Nc2ccc(O)cc2)C1` (stereo not shown) [H, --C6 H4 OH(p)] reads 1.4 µg.
Still for that read-out and setting: the result for `CC1CCC(C(C)C)C(C(=O)N2CCCCC2)C1` (stereo not shown) [--(CH2)5 --] reads 6 µg; that for `CC1CCC(C(C)C)C(C(=O)NC(C)C)C1` (stereo not shown) [H, --C3 H7 (iso)], 0.5 µg.
With `CC1CCC(C(C)C)C(C(=O)NCCCO)C1` (stereo not shown) [H, --(CH2)3 OH, N-3-hydroxypropyl-p-menthane carboxamide], the “Threshold (average minimum quantity to produce a noticeable cooling effect)” value is 3 µg.
Same read-out and setting: with `CC1CCC(C(C)C)C(C(=O)NC2CCCCC2)C1` (stereo not shown) [H, --C6 H11 (cyclo)] the figure was 1 µg.
As to `CCC(CO)NC(=O)C1CC(C)CCC1C(C)C` (stereo not shown) [H, --CH(C2 H5)CH2 OH], the “Threshold (average minimum quantity to produce a noticeable cooling effect)” value is 1.0 µg.
As to `CC(C)CNC(=O)C1CC(C)CCC1C(C)C` (stereo not shown) [H, --C4 H9 (iso)], the “Threshold (average minimum quantity to produce a noticeable cooling effect)” value stood at 0.9 µg.
On the same count and under the same terms, with `CCOC(=O)CC(C)NC(=O)C1CC(C)CCC1C(C)C` (stereo not shown) [H, --CH(CH3)CH2 COOC2 H5] the figure was 0.8 µg; with `CCCCCNC(=O)C1CC(C)CCC1C(C)C` (stereo not shown) [H, --C5 H11 (n)], 3 µg.
Turning to `CC1CCC(C(C)C)C(C(=O)Nc2cccnc2)C1` (stereo not shown) [H, --3-Pyridyl], the “Threshold (average minimum quantity to produce a noticeable cooling effect)” value was 0.5 µg.
The same measure, in the same setting: the result for `CCOC(=O)C(C)NC(=O)C1CC(C)CCC1C(C)C` (stereo not shown) [H, --CH(CH3)COOC2 H5] reads 0.4 µg; that for `CC1CCC(C(C)C)C(C(=O)NC2CCCC2)C1` (stereo not shown) [H, --C5 H9 (cyclo)], 0.5 µg; that for `CC1CCC(C(C)C)N(C(=O)C2CC(C)CCC2C(C)C)CC1` (stereo not shown) [--CH(iso-C3 H7)CH2 CH2 CH(CH3)CH2 CH2 --], 50 µg.
As for `CC1CCC(C(C)C)C(C(=O)NCCCCCCO)C1` (stereo not shown) [H, --(CH2)6 OH], the “Threshold (average minimum quantity to produce a noticeable cooling effect)” value was determined as 1.0 µg.
Consider `CCCCCCCCCCNC(=O)C1CC(C)CCC1C(C)C` (stereo not shown) [H, --C10 H21 (n)], for which the “Threshold (average minimum quantity to produce a noticeable cooling effect)” value was 10 µg.
On the same count and under the same terms, with `CC1CCC(C(C)C)C(C(=O)Nc2ccc([N+](=O)[O-])cc2)C1` (stereo not shown) [H, --C6 H4 NO2 (p)] the figure was 0.3 µg; with `CC1CCC(C(C)C)C(C(=O)NCC#CCO)C1` (stereo not shown) [H, --CH2 C≡CCH2 OH], 17 µg.
On the same count and under the same terms, the result for `CC1CCC(C(C)C)C(C(=O)N2CCCC2)C1` (stereo not shown) [--(CH2 H4 --] reads 5 µg.
Still for that read-out and setting: the result for `CC1CCC(C(C)C)C(C(=O)N2CCNCC2)C1` (stereo not shown) [--CH2 CH2 NHCH2 CH2 --] reads 15 µg; that for `CC1CCC(C(C)C)C(C(=O)NC2CC2)C1` (stereo not shown) [H, --C3 H5 (cyclo)], 0.5 µg; that for `CCN(CC)C(=O)C1CC(C)CCC1C(C)C` (stereo not shown) [--C2 H5, --C2 H5], 3 µg.
Turning to `CC1CCC(C(C)C)C(C(=O)N2C(C)CCC2C)C1` (stereo not shown) [--CH(CH3)CH2 CH2 CH(CH3)--], the “Threshold (average minimum quantity to produce a noticeable cooling effect)” value was 0.5 µg.
The same measure, in the same setting: the result for `CC1CCC(C(C)C)C(C(=O)Nc2ccc(F)cc2)C1` (stereo not shown) [H, --C6 H4 F(p)] reads 0.5 µg.
Same read-out and setting: with `CCC(C)NC(=O)C1CC(C)CCC1C(C)C` (stereo not shown) [H, --C4 H9 (sec)] the figure was 0.7 µg; with `CCN(CC(C)C)C(=O)C1CC(C)CCC1C(C)C` (stereo not shown) [--C2 H5, --C4 H9 (iso)], 5 µg.
Consider `CC1CCC(C(C)C)C(C(=O)NCc2ccccc2)C1` (stereo not shown) [H, --CH2 Ph], for which the “Threshold (average minimum quantity to produce a noticeable cooling effect)” value is 10 µg.
Still for that read-out and setting: with `CC1CCC(C(C)C)C(C(=O)N(CCO)C(C)C)C1` (stereo not shown) [--C3 H7 (iso), --CH2 CH2 OH] the figure was 3 µg.

Staying with this assay, now noted: panel selection criterion, six members.
With `CC1CCC(C(C)C)C(O)C1` (stereo not shown) [1-menthol, reference compound], the “average threshold to 1-menthol of selected panel” value was “approximately 0.25 μg”.

A further assay deals with cold receptors. The assay is described as follows: Cooling effect of consumer product applied to skin (face, scalp, lips, forehead). The class given is in vivo, human. Conditions: Example 3, toilet water, 3.0%, skin. As for the experimental part:
Into two separate samples of the base lotion were added 2.0% by weight based on the total composition of N-ethyl-p-menthane-3-carboxamide and N,N-dimethyl-p-menthane-3-carboxamide, each into a different one of the two samples.
To the recipe was added 3.0%, based on the total composition of N-p-menth-3-oylglycine methyl ester. […]
Sodium lauryl ether sulphate, 10 g., was dispersed in 90 g. water in a high speed mill. To the dispersion was added 3.3% by weight of N-(2-hydroxy-n-propyl)-p-menthane-3-carboxamide. […]
The sodium stearate was dissolved by stirring in a warm mixture of the ethanol propylene glycol and water. To the solution was added the perfume and 3.0% of N-(2-hydroxy-n-propyl)-p-menthane-3-carboxamide and the mixture then allowed to solidify into a waxy cake. […]
This Example illustrates now the physiological cooling effect of the compounds of this invention varies according to the locality of application.
In the course of grinding there was added 3.0% of N-n-propyl-p-menthane-3-carboxamide. […]
To this liquid was added 1.0% of N-ethyl-p-menthane-3-carboxamide. A paper tissue was then soaked in the liquid.
For the molecule `COC(=O)CNC(=O)C1CC(C)CCC1C(C)C` (stereo not shown) [H, --CH2 COOCH3, N-(p-menth-3-oyl)glycine methyl ester], the cooling effect result is “a cooling effect was clearly noticeable on the skin well after the termination of any cooling effect attributable to the evaporation of the alcoholic carrier”.

The same assay, now with this note: Example 6, lipstick, 0.6%, lips.
`CC1CCC(C(C)C)C(C(=O)NCC(=O)O)C1` (stereo not shown) [H, --CH2 COOH, N-(p-menth-3-oyl) glycine]: the cooling effect entry is reported as “a persistent cooling effect is clearly noiticeable”.

The assay is the same for the next values; noted with them: Example 8, hair tonic, 2.0%, scalp.
Turning to `COC(=O)CNC(=O)C1CC(C)CCC1C(C)C` (stereo not shown) [H, --CH2 COOCH3, N-(p-menth-3-oyl)glycine methyl ester], the cooling effect entry is recorded as “a cooling effect is noticed”.

Still in this assay, the particulars now being: Example 21, antiseptic ointment, 0.5%, skin.
As for `COC(=O)CNC(=O)C1CC(C)CCC1C(C)C` (stereo not shown) [H, --CH2 COOCH3, N-(p-menth-3-oyl)glycine methyl ester], the cooling effect entry was “marked cooling effect”.

The assay is the same for the next values; noted with them: Example 24 repeated, cleansing tissue, 2.0%, skin, in place of the N-ethyl compound.
For the molecule `CC1CCC(C(C)C)C(C(=O)NCCCO)C1` (stereo not shown) [H, --(CH2)3 OH, N-3-hydroxypropyl-p-menthane carboxamide], the cooling effect result is reported as “equally effective results”.
